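Growth conditions: 96-well plates. Treatment: test compound, 48 hours, 5 concentrations. Analysis: linear interpolation between bracketing concentrations; unreached endpoints set to highest concentration. GI50 is the concentration that inhibits growth by half. Definition used: TGI = concentration required for complete inhibition of growth.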
Legend:
Assay in all cases: NCI tumour cell line growth inhibition, 48 h
SF-539 CNS = test system: SF-539 CNS
MALME-3M melanoma = test system: MALME-3M melanoma
DMS 273 small cell lung = test system: DMS 273 small cell lung
DMS 114 small cell lung = test system: DMS 114 small cell lung
HOP-62 NSCLC = test system: HOP-62 NSCLC
LXFL 529 NSCLC = test system: LXFL 529 NSCLC
M19-MEL melanoma = test system: M19-MEL melanoma
HCT-116 colon = test system: HCT-116 colon
KM12 colon = test system: KM12 colon
HS 578T breast = test system: HS 578T breast
T-47D breast = test system: T-47D breast
UACC-62 melanoma = test system: UACC-62 melanoma

With `COc1cc2cc(OC(C)=O)c3cc4c(cc3c2c(OC)c1OC)OCO4` the TGI (SF-539 CNS) was greater than 100 µM, the TGI (MALME-3M melanoma) was greater than 100 µM and the TGI (DMS 273 small cell lung) was greater than 100 µM. The TGI (DMS 114 small cell lung) was greater than 100 µM, the TGI (HOP-62 NSCLC) was greater than 100 µM and the TGI (LXFL 529 NSCLC) was greater than 100 µM. It also gave a TGI (M19-MEL melanoma) greater than 100 µM, a TGI (HCT-116 colon) greater than 100 µM and a TGI (KM12 colon) greater than 100 µM.

With `Cc1cnc2n1S(=O)(=O)c1cc(C(=O)Nc3cccc4nsnc34)c(Cl)cc1S2` the GI50 (HS 578T breast) was 24.5 µM, the TGI (HS 578T breast) was 63.3 µM and the GI50 (SF-539 CNS) was 23.4 µM. The TGI (SF-539 CNS) was 50.2 µM, the GI50 (MALME-3M melanoma) was 13.9 µM and the TGI (MALME-3M melanoma) was 40.9 µM. For the same compound, the GI50 (T-47D breast) was 11.5 µM, the TGI (T-47D breast) was 31.9 µM and the GI50 (HOP-62 NSCLC) was 20.1 µM. It also gave a TGI (HOP-62 NSCLC) of 35.8 µM, a GI50 (HCT-116 colon) of 20.1 µM and a TGI (HCT-116 colon) of 35.6 µM. It also gave a GI50 (UACC-62 melanoma) of 17.1 µM, a TGI (UACC-62 melanoma) of 32.9 µM and a GI50 (KM12 colon) of 17.6 µM. It also gave a TGI (KM12 colon) of 33.4 µM.

Compound `CC(C)(C)C(=O)OCOP(=O)(NCc1ccccc1)C1CCCN(O)C1=O` (stereo not given) has a GI50 (HS 578T breast) of 1.28 µM, a TGI (HS 578T breast) of 6.64 µM and a GI50 (SF-539 CNS) of 3.2 µM. It also gave a TGI (SF-539 CNS) of 16.5 µM, a GI50 (MALME-3M melanoma) of 1 µM and a TGI (MALME-3M melanoma) of 6.96 µM. It also gave a GI50 (T-47D breast) of 1.98 µM, a TGI (T-47D breast) of 57.6 µM and a GI50 (HOP-62 NSCLC) of 2.55 µM. For the same compound, the TGI (HOP-62 NSCLC) was 32.8 µM, the GI50 (HCT-116 colon) was 2.84 µM and the TGI (HCT-116 colon) was 14.4 µM. The GI50 (UACC-62 melanoma) was 2.22 µM, the TGI (UACC-62 melanoma) was 6.49 µM and the GI50 (KM12 colon) was 1.13 µM. The TGI (KM12 colon) was 3.56 µM.

For `O=c1c2c(nc3n1CCS3)[nH]c1cc([N+](=O)[O-])ccc12`, the GI50 (HS 578T breast) was greater than 100 µM, the TGI (HS 578T breast) was greater than 100 µM and the GI50 (SF-539 CNS) was greater than 100 µM. The TGI (SF-539 CNS) was greater than 100 µM, the GI50 (MALME-3M melanoma) was greater than 100 µM and the TGI (MALME-3M melanoma) was greater than 100 µM. The GI50 (T-47D breast) was 45 µM, the TGI (T-47D breast) was greater than 100 µM and the GI50 (HOP-62 NSCLC) was greater than 100 µM. The TGI (HOP-62 NSCLC) was greater than 100 µM, the GI50 (HCT-116 colon) was greater than 100 µM and the TGI (HCT-116 colon) was greater than 100 µM. It also gave a GI50 (UACC-62 melanoma) greater than 100 µM, a TGI (UACC-62 melanoma) greater than 100 µM and a GI50 (KM12 colon) greater than 100 µM. For the same compound, the TGI (KM12 colon) was greater than 100 µM.

With `O=C(NCCCCN1CCOCC1)c1cc2ccccc2o1` the GI50 (HS 578T breast) was greater than 100 µM, the TGI (HS 578T breast) was greater than 100 µM and the GI50 (SF-539 CNS) was greater than 100 µM. For the same compound, the TGI (SF-539 CNS) was greater than 100 µM, the GI50 (MALME-3M melanoma) was greater than 100 µM and the TGI (MALME-3M melanoma) was greater than 100 µM. For the same compound, the GI50 (T-47D breast) was greater than 100 µM, the TGI (T-47D breast) was greater than 100 µM and the GI50 (HOP-62 NSCLC) was greater than 100 µM. For the same compound, the TGI (HOP-62 NSCLC) was greater than 100 µM, the GI50 (HCT-116 colon) was greater than 100 µM and the TGI (HCT-116 colon) was greater than 100 µM. It also gave a GI50 (UACC-62 melanoma) greater than 100 µM, a TGI (UACC-62 melanoma) greater than 100 µM and a GI50 (KM12 colon) greater than 100 µM. It also gave a TGI (KM12 colon) greater than 100 µM.

`CCc1cccc(C(C)C)c1NC(=O)C(=O)C1C(=O)Nc2ccccc2S1=O` (stereo not given) gave a TGI (HS 578T breast) greater than 100 µM, a TGI (SF-539 CNS) greater than 100 µM and a TGI (MALME-3M melanoma) greater than 100 µM. The TGI (T-47D breast) was greater than 100 µM, the TGI (HOP-62 NSCLC) was greater than 100 µM and the TGI (HCT-116 colon) was greater than 100 µM. The TGI (UACC-62 melanoma) was greater than 100 µM and the TGI (KM12 colon) was greater than 100 µM.

With `CC(=O)O[C@@H]1C2CCC3C(CC[C@@]4(C)C3CC[C@@H]4C(C)N(C)C)[C@@]2(C)CC[C@@H]1NC(=O)C=C(C)C` (stereo not given in full) the GI50 (HS 578T breast) was 2.2 µM, the TGI (HS 578T breast) was 6.82 µM and the GI50 (SF-539 CNS) was 1.34 µM. For the same compound, the TGI (SF-539 CNS) was 2.71 µM, the GI50 (MALME-3M melanoma) was 1.91 µM and the TGI (MALME-3M melanoma) was 3.89 µM. It also gave a GI50 (T-47D breast) of 1.75 µM, a TGI (T-47D breast) of 6.23 µM and a GI50 (HOP-62 NSCLC) of 2.25 µM. For the same compound, the TGI (HOP-62 NSCLC) was 5.62 µM, the GI50 (HCT-116 colon) was 1.54 µM and the TGI (HCT-116 colon) was 3.49 µM. It also gave a GI50 (UACC-62 melanoma) of 2.03 µM, a TGI (UACC-62 melanoma) of 3.96 µM and a GI50 (KM12 colon) of 2.66 µM. It also gave a TGI (KM12 colon) of 9.5 µM.

With `NC(=O)NNC(=O)CCn1[nH]c(=O)c(Cl)c(Cl)c1=O` the TGI (MALME-3M melanoma) was greater than 100 µM, the TGI (DMS 273 small cell lung) was greater than 100 µM and the TGI (DMS 114 small cell lung) was greater than 100 µM. For the same compound, the TGI (HOP-62 NSCLC) was greater than 100 µM, the TGI (LXFL 529 NSCLC) was greater than 100 µM and the TGI (M19-MEL melanoma) was greater than 100 µM. It also gave a TGI (HCT-116 colon) greater than 100 µM and a TGI (UACC-62 melanoma) greater than 100 µM.

From PubChem BioAssay (NCI)
